The record followed here is patent US8652523B2, “Oral pharmaceutical formulation in the form of a plurality of microcapsules for prolonged release of active principle(s) with slow solubility” (Flamel Technologies, priority 2002, dated 2014).

In brackets after ≈: the same amount, converted by molar mass.

A short description of data set [1]: Method for measuring solubility of AP in aqueous solution containing solubilizing agent Cremophor RH 40 (37° C., 6 hours, filtration, HPLC). It is filed as physicochemical. How it is done:
The solution is stirred at 37° C. for 6 hours and then filtered through a filter with a 0.2 μm pore diameter. The content of solubilized AP is evaluated by HPLC chromatography or any other suitable analytical technique.
The ability of the solubilizing agent, made of Cremophor® RH 40, to solubilize an active principle, made up of spironolactone, is tested according to the following method for measuring solubility:
The AP is introduced into an aqueous solution containing the solubilizing agent. The solution is stirred at 37° C. for 6 hours and is then filtered through a filter with a 0.2 μm pore diameter. The content of solubilized AP is evaluated by HPLC.

A short description of data set [2]: Increase in solubility of spironolactone in aqueous solution at pH 6.8, 25° C. It is filed as physicochemical. The note with it: pH 6.8, aqueous buffer, without solubilizing agent.

What is called solubility is the dissolved amount per volume that the medium holds. Consider `CC(=O)S[C@@H]1CC2=CC(=O)CC[C@]2(C)[C@H]2CC[C@@]3(C)[C@@H](CC[C@@]34CCC(=O)O4)[C@H]12` [spironolactone], for which the “(Spironolactone) dissolved in solution” value in data set [1] (Cremophor RH 40 0 % w/w at 37° C.) was less than 0.1 mg/mL; in data set [1] (Cremophor RH 40 1 % w/w at 37° C.), 0.1 mg/mL; in data set [1] (Cremophor RH 40 2 % w/w at 37° C.) it was 0.2 mg/mL; in data set [1] (Cremophor RH 40 5 % w/w at 37° C.) it was 0.4 mg/mL; in data set [1] (Cremophor RH 40 10 % w/w at 37° C.), 0.8 mg/mL; in data set [1] (Cremophor RH 40 20 % w/w at 37° C.), 1.4 mg/mL. This compound also yielded a solubility in data set [2] of roughly 38 µg/mL (≈ 91.2 µM).
